How the values were obtained:
[1] = test system: China jute (Ab); test: Test Example 7: crop plant selectivity by upland field soil treatment (corn), herbicidal effects; format: in vivo; parameters: scale not given here; settings: 21st day after application
How it was run: (§1)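 Sand-filled pot; corn plus weeds sown, soil-covered. Post-application greenhouse culture. Herbicidal effect/phytotoxicity rated day 21 per standard scale.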

[2] = test system: slender amaranth (Am); test: as above; format: in vivo; parameters: scale not given here; settings: 21st day after application
How it was run: as §1

[3] = test system: common lambsquarters (Ch); test: as above; format: in vivo; parameters: scale not given here; settings: 21st day after application
How it was run: as §1

[4] = test system: green foxtail (Se); test: as above; format: in vivo; parameters: scale not given here; settings: 21st day after application
How it was run: as §1

[5] = test system: pale smartweed (Po); test: as above; format: in vivo; parameters: scale not given here; settings: 21st day after application
How it was run: as §1

[6] = test system: China jute (Ab); test: Test Example 4: crop plant selectivity by upland field soil treatment (cotton), herbicidal effects; format: in vivo; parameters: scale not given here; settings: evaluated 21st day after application
How it was run: (§2)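 Cotton and weeds (incl. China jute, pale smartweed, slender amaranth) sown in sand-filled pots and covered with soil, then soil-treated. Grown in greenhouse; herbicidal effect and cotton phytotoxicity scored on day 21 after application against a rating standard.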

[7] = test system: common lambsquarters (Ch); test: as above; format: in vivo; parameters: scale not given here; settings: evaluated 21st day after application
How it was run: as §2

[8] = test system: pale smartweed (Po); test: as above; format: in vivo; parameters: scale not given here; settings: evaluated 21st day after application
How it was run: as §2

[9] = test system: corn (Ze); test: Test Example 11: crop plant selectivity by upland field foliage treatment (corn), phytotoxicity; settings: upland field foliage treatment, dose 1.6 g ai/10a, 14th day after treatment
How it was run: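 Corn and the weed species were sown together in sand-filled pots and grown in a greenhouse for 2 weeks before foliar treatment. Herbicidal effect was scored on day 14 after treatment against a graded standard scale, with corn phytotoxicity scored alongside.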

CCOC(=O)c1cc(-c2ccc(C(F)(F)F)n(C)c2=O)c(F)cc1Cl [1-65]
5: Herbicidal effects Ab ([1]; dose 1.6 g ai/10a) | Herbicidal effects Ab ([1]; dose 6.3 g ai/10a) | Herbicidal effects Am ([2]; dose 1.6 g ai/10a) | Herbicidal effects Am ([2]; dose 6.3 g ai/10a) | Herbicidal effects Ch ([3]; dose 1.6 g ai/10a) | Herbicidal effects Ch ([3]; dose 6.3 g ai/10a) | Herbicidal effects Se ([4]; dose 1.6 g ai/10a) | Herbicidal effects Se ([4]; dose 6.3 g ai/10a) | Herbicidal effects Po ([5]; dose 1.6 g ai/10a) | Herbicidal effects Po ([5]; dose 6.3 g ai/10a) | Herbicidal effects Ab ([6]; dose 1.6 g ai/10 a) | Herbicidal effects Ab ([6]; dose 6.3 g ai/10 a) | Herbicidal effects Ch ([7]; dose 1.6 g ai/10 a) | Herbicidal effects Ch ([7]; dose 6.3 g ai/10 a) | Herbicidal effects Po ([8]; dose 1.6 g ai/10 a) | Herbicidal effects Po ([8]; dose 6.3 g ai/10 a)
2: Phytotoxicity Ze [9]

Cn1c(C(F)(F)F)ccc(-c2cc(OCCCl)c(Cl)cc2F)c1=O [1-171]
5: Herbicidal effects Ab ([1]; dose 6.3 g ai/10a) | Herbicidal effects Am ([2]; dose 6.3 g ai/10a) | Herbicidal effects Ch ([3]; dose 6.3 g ai/10a) | Herbicidal effects Se ([4]; dose 6.3 g ai/10a) | Herbicidal effects Po ([5]; dose 6.3 g ai/10a) | Herbicidal effects Ab ([6]; dose 6.3 g ai/10 a) | Herbicidal effects Ch ([7]; dose 6.3 g ai/10 a) | Herbicidal effects Po ([8]; dose 6.3 g ai/10 a)
1: Phytotoxicity Ze [9]

C#CCOc1cc(-c2ccc(C(F)(F)F)n(N)c2=O)c(F)cc1Cl [1-178]
5: Herbicidal effects Ab ([1]; dose 1.6 g ai/10a) | Herbicidal effects Am ([2]; dose 1.6 g ai/10a) | Herbicidal effects Ch ([3]; dose 1.6 g ai/10a) | Herbicidal effects Se ([4]; dose 1.6 g ai/10a) | Herbicidal effects Po ([5]; dose 1.6 g ai/10a) | Herbicidal effects Ab ([6]; dose 1.6 g ai/10 a) | Herbicidal effects Ab ([6]; dose 6.3 g ai/10 a) | Herbicidal effects Ch ([7]; dose 1.6 g ai/10 a) | Herbicidal effects Ch ([7]; dose 6.3 g ai/10 a) | Herbicidal effects Po ([8]; dose 1.6 g ai/10 a) | Herbicidal effects Po ([8]; dose 6.3 g ai/10 a)
2: Phytotoxicity Ze [9]

COc1cc(-c2ccc(C(F)(F)F)n(N)c2=O)c(F)cc1Cl [1-179]
1: Phytotoxicity Ze [9]
5: Herbicidal effects Ab ([1]; dose 6.3 g ai/10a) | Herbicidal effects Am ([2]; dose 6.3 g ai/10a) | Herbicidal effects Ch ([3]; dose 6.3 g ai/10a) | Herbicidal effects Se ([4]; dose 6.3 g ai/10a) | Herbicidal effects Po ([5]; dose 6.3 g ai/10a) | Herbicidal effects Ab ([6]; dose 6.3 g ai/10 a) | Herbicidal effects Ch ([7]; dose 6.3 g ai/10 a) | Herbicidal effects Po ([8]; dose 6.3 g ai/10 a)

C#CC(C)Oc1cc(Cl)cc(F)c1-c1ccc(C(F)(F)F)n(C)c1=O (stereo not shown) [1′-5]
1: Phytotoxicity Ze [9]
4: Herbicidal effects Se ([4]; dose 1.6 g ai/10a)
5: Herbicidal effects Ab ([1]; dose 1.6 g ai/10a) | Herbicidal effects Ab ([1]; dose 6.3 g ai/10a) | Herbicidal effects Am ([2]; dose 1.6 g ai/10a) | Herbicidal effects Am ([2]; dose 6.3 g ai/10a) | Herbicidal effects Ch ([3]; dose 1.6 g ai/10a) | Herbicidal effects Ch ([3]; dose 6.3 g ai/10a) | Herbicidal effects Se ([4]; dose 6.3 g ai/10a) | Herbicidal effects Po ([5]; dose 1.6 g ai/10a) | Herbicidal effects Po ([5]; dose 6.3 g ai/10a) | Herbicidal effects Ab ([6]; dose 1.6 g ai/10 a) | Herbicidal effects Ab ([6]; dose 6.3 g ai/10 a) | Herbicidal effects Ch ([7]; dose 1.6 g ai/10 a) | Herbicidal effects Ch ([7]; dose 6.3 g ai/10 a) | Herbicidal effects Po ([8]; dose 1.6 g ai/10 a) | Herbicidal effects Po ([8]; dose 6.3 g ai/10 a)

C=CC(C)Oc1cc(-c2ccc(C(F)(F)F)n(C)c2=O)c(F)cc1Cl (stereo not shown) [Compound 1-182]
5: Herbicidal effects Ab ([1]; dose 6.3 g ai/10a) | Herbicidal effects Am ([2]; dose 6.3 g ai/10a) | Herbicidal effects Ch ([3]; dose 6.3 g ai/10a) | Herbicidal effects Se ([4]; dose 6.3 g ai/10a) | Herbicidal effects Po ([5]; dose 6.3 g ai/10a) | Herbicidal effects Ab ([6]; dose 6.3 g ai/10 a) | Herbicidal effects Ch ([7]; dose 6.3 g ai/10 a) | Herbicidal effects Po ([8]; dose 6.3 g ai/10 a)
1: Phytotoxicity Ze [9]

CCON=Cc1cc(-c2ccc(C(F)(F)F)n(C)c2=O)c(F)cc1Cl [Compound 1-187]
2: Phytotoxicity Ze [9]
5: Herbicidal effects Ab ([1]; dose 6.3 g ai/10a) | Herbicidal effects Am ([2]; dose 6.3 g ai/10a) | Herbicidal effects Ch ([3]; dose 6.3 g ai/10a) | Herbicidal effects Se ([4]; dose 6.3 g ai/10a) | Herbicidal effects Po ([5]; dose 6.3 g ai/10a) | Herbicidal effects Ab ([6]; dose 6.3 g ai/10 a) | Herbicidal effects Ch ([7]; dose 6.3 g ai/10 a) | Herbicidal effects Po ([8]; dose 6.3 g ai/10 a)

CCOC(=O)CON=Cc1cc(-c2ccc(C(F)(F)F)n(C)c2=O)c(F)cc1Cl [Compound 1-191]
5: Herbicidal effects Ab ([1]; dose 6.3 g ai/10a) | Herbicidal effects Am ([2]; dose 6.3 g ai/10a) | Herbicidal effects Ch ([3]; dose 6.3 g ai/10a) | Herbicidal effects Se ([4]; dose 6.3 g ai/10a) | Herbicidal effects Po ([5]; dose 6.3 g ai/10a) | Herbicidal effects Ab ([6]; dose 6.3 g ai/10 a) | Herbicidal effects Ch ([7]; dose 6.3 g ai/10 a) | Herbicidal effects Po ([8]; dose 6.3 g ai/10 a)
2: Phytotoxicity Ze [9]

C=CC(O)c1cc(-c2ccc(C(F)(F)F)n(C)c2=O)c(F)cc1Cl (stereo not shown) [Compound 1-197]
2: Phytotoxicity Ze [9]
5: Herbicidal effects Ab ([1]; dose 6.3 g ai/10a) | Herbicidal effects Am ([2]; dose 6.3 g ai/10a) | Herbicidal effects Ch ([3]; dose 6.3 g ai/10a) | Herbicidal effects Se ([4]; dose 6.3 g ai/10a) | Herbicidal effects Po ([5]; dose 6.3 g ai/10a) | Herbicidal effects Ab ([6]; dose 6.3 g ai/10 a) | Herbicidal effects Ch ([7]; dose 6.3 g ai/10 a) | Herbicidal effects Po ([8]; dose 6.3 g ai/10 a)

CSCOc1cc(-c2ccc(C(F)(F)F)n(C)c2=O)c(F)cc1Cl [Compound 1-208]
2: Phytotoxicity Ze [9]
5: Herbicidal effects Ab ([1]; dose 6.3 g ai/10a) | Herbicidal effects Am ([2]; dose 6.3 g ai/10a) | Herbicidal effects Ch ([3]; dose 6.3 g ai/10a) | Herbicidal effects Se ([4]; dose 6.3 g ai/10a) | Herbicidal effects Ab ([6]; dose 6.3 g ai/10 a) | Herbicidal effects Ch ([7]; dose 6.3 g ai/10 a)
4: Herbicidal effects Po ([5]; dose 6.3 g ai/10a) | Herbicidal effects Po ([8]; dose 6.3 g ai/10 a)

C#CCN1C(=O)COc2cc(Cl)c(-c3ccc(C(F)(F)F)n(C)c3=O)cc21 [Compound 2-25]
2: Phytotoxicity Ze [9]
5: Herbicidal effects Ab ([1]; dose 1.6 g ai/10a) | Herbicidal effects Am ([2]; dose 1.6 g ai/10a) | Herbicidal effects Ch ([3]; dose 1.6 g ai/10a) | Herbicidal effects Se ([4]; dose 1.6 g ai/10a) | Herbicidal effects Po ([5]; dose 1.6 g ai/10a) | Herbicidal effects Ab ([6]; dose 1.6 g ai/10 a) | Herbicidal effects Ab ([6]; dose 6.3 g ai/10 a) | Herbicidal effects Ch ([7]; dose 1.6 g ai/10 a) | Herbicidal effects Ch ([7]; dose 6.3 g ai/10 a) | Herbicidal effects Po ([8]; dose 1.6 g ai/10 a) | Herbicidal effects Po ([8]; dose 6.3 g ai/10 a)
